Experimental data published in ChEMBL document CHEMBL3822404, “Design, synthesis and biological evaluation of novel 3-alkylsulfanyl-4-amino-1,2,4-triazole derivatives” (Bioorg Med Chem Lett, 2016).

Key:
HeLa [1] = assay: Induction of cell cycle arrest in human HeLa cells assessed as accumulation at S phase at 2 uM measured after 12 to 18 hrs by […] cell sorting analysis (reference value: 19.02%); assay type: functional
HeLa [2] = assay: Induction of cell cycle arrest in human HeLa cells assessed as accumulation at G2/M phase measured after 18 hrs by […] cell sorting analysis; assay type: functional, cell-based
HeLa [3] = assay: Induction of cell cycle arrest in human HeLa cells assessed as accumulation at G2/M phase at 4 uM measured after 12 to 18 hrs by […] cell sorting analysis (reference value: 16.67%); assay type: functional
HepG2 = assay: Antiproliferative activity against human HepG2 cells measured after 48 hrs by MTT assay; assay type: functional, cell-based; conditions: HepG2, 48 h
HeLa [4] = assay: Induction of cell cycle arrest in human HeLa cells assessed as accumulation at S phase at 4 uM measured after 12 to 18 hrs by […] cell sorting analysis (reference value: 19.02%); assay type: functional
HeLa [5] = assay: Induction of cell cycle arrest in human HeLa cells assessed as accumulation at G0/G1 phase at 8 uM measured after 12 to 18 hrs by […] cell sorting analysis (reference value: 64.31%); assay type: functional
HeLa [6] = assay: Antiproliferative activity against human HeLa cells measured after 48 hrs by MTT assay; assay type: functional, cell-based
HEK293 = assay: Cytotoxicity against HEK293 cells measured after 48 hrs by MTT assay; assay type: cell-based; conditions: Homo sapiens, HEK293, 48 h
HeLa [7] = assay: Induction of cell cycle arrest in human HeLa cells assessed as accumulation at G2/M phase at 2 uM measured after 12 to 18 hrs by […] cell sorting analysis (reference value: 16.67%); assay type: functional
HeLa [8] = assay: Induction of cell cycle arrest in human HeLa cells assessed as accumulation at G2/M phase at 8 uM measured after 12 to 18 hrs by […] cell sorting analysis (reference value: 16.67%); assay type: functional
HeLa [9] = assay: Induction of cell cycle arrest in human HeLa cells assessed as accumulation at G0/G1 phase at 4 uM measured after 12 to 18 hrs by […] cell sorting analysis (reference value: 64.31%); assay type: functional
[10] = Antiproliferative activity against human HCT116 cells measured after 48 hrs by MTT assay; assay type: functional, cell-based; conditions: HCT-116, 48 h
HeLa [11] = assay: Induction of cell cycle arrest in human HeLa cells assessed as accumulation at S phase at 8 uM measured after 12 to 18 hrs by […] cell sorting analysis (reference value: 19.02%); assay type: functional
HeLa [12] = assay: Induction of cell cycle arrest in human HeLa cells assessed as accumulation at G0/G1 phase at 2 uM measured after 12 to 18 hrs by […] cell sorting analysis (reference value: 64.31%); assay type: functional
[13] = Antiproliferative activity against human PC3 cells measured after 48 hrs by MTT assay; assay type: functional, cell-based; conditions: PC-3, 48 h

## COc1cc(-c2nnc(SCC(=O)c3ccc(C)cc3)n2N)cc(OC)c1OC
HeLa [1]
  Activity: 14.07%
HeLa [2]
  Activity: Dose-dependent effect
HeLa [3]
  Activity: 70.18%
HepG2
  IC50: > 100 µM
HeLa [4]
  Activity: 17.42%
HeLa [5]
  Activity: 7.37%
HeLa [6]
  IC50: 2.94 µM
HEK293
  IC50: 100 µM
HeLa [7]
  Activity: 32.55%
HeLa [8]
  Activity: 78.81%
HeLa [9]
  Activity: 12.41%
[10]
  IC50: 0.37 µM
HeLa [11]
  Activity: 13.81%
HeLa [12]
  Activity: 53.39%
[13]
  IC50: 31.3 µM

## COc1cc(-c2nnc(SCC(=O)c3ccc(F)cc3)n2N)cc(OC)c1OC
HepG2
  IC50: 90.4 µM
HeLa [6]
  IC50: 20.9 µM
[10]
  IC50: 3.23 µM
[13]
  IC50: > 100 µM

## COc1cc(-c2nnc(SCC(=O)c3ccccc3)n2N)cc(OC)c1OC
HepG2
  IC50: 7.8 µM
HeLa [6]
  IC50: > 100 µM
[10]
  IC50: 53 µM
[13]
  IC50: > 100 µM

## COc1cccc(NC(=O)CSc2nnc(-c3cc(OC)c(OC)c(OC)c3)n2N)c1
HepG2
  IC50: > 100 µM
HeLa [6]
  IC50: 4.02 µM
HEK293
  IC50: 100 µM
[10]
  IC50: 0.68 µM
[13]
  IC50: > 100 µM

## O=c1[nH]cc(F)c(=O)[nH]1 [FLUOROURACIL]
HeLa [6]
  IC50: 57.2 µM
[10]
  IC50: 68.7 µM
[13]
  IC50: 57 µM

## COc1cc(-c2nnc(SCC(=O)c3ccc(Cl)cc3)n2N)cc(OC)c1OC
HepG2
  IC50: > 100 µM
HeLa [6]
  IC50: 13.1 µM
[10]
  IC50: 7.5 µM
[13]
  IC50: > 100 µM

## COc1cc(-c2nnc(SCC(=O)Nc3ccccc3)n2N)cc(OC)c1OC
HepG2
  IC50: 49.9 µM
HeLa [6]
  IC50: 8.28 µM
[10]
  IC50: 1.73 µM
[13]
  IC50: 37.9 µM

## COc1cc(-c2nnc(SCC(=O)Nc3ccccc3F)n2N)cc(OC)c1OC
HepG2
  IC50: 18.7 µM
HeLa [6]
  IC50: 38.2 µM
HEK293
  IC50: > 100 µM
[10]
  IC50: 1.16 µM
[13]
  IC50: 36.7 µM

## COc1cc(-c2nnc(SCC(=O)NCCc3ccccc3)n2N)cc(OC)c1OC
HepG2
  IC50: > 100 µM
HeLa [6]
  IC50: > 100 µM
[10]
  IC50: > 100 µM
[13]
  IC50: 80.5 µM

## COc1cc(-c2nnc(SCC(=O)c3ccc(Br)cc3)n2N)cc(OC)c1OC
HepG2
  IC50: 92.5 µM
HeLa [6]
  IC50: 10.4 µM
[10]
  IC50: 9.23 µM
[13]
  IC50: > 100 µM

## COc1ccc(CNC(=O)CSc2nnc(-c3cc(OC)c(OC)c(OC)c3)n2N)cc1OC
HepG2
  IC50: > 100 µM
HeLa [6]
  IC50: > 100 µM
[10]
  IC50: > 100 µM
[13]
  IC50: > 100 µM

## COc1cc(-c2nnc(SCC(=O)NCCc3ccc(C)cc3)n2N)cc(OC)c1OC
HepG2
  IC50: > 100 µM
HeLa [6]
  IC50: > 100 µM
[10]
  IC50: > 100 µM
[13]
  IC50: 41.3 µM

## COc1cc(-c2nnc(SCC(=O)NCCc3ccc(F)cc3)n2N)cc(OC)c1OC
HepG2
  IC50: > 100 µM
HeLa [6]
  IC50: 66.5 µM
[10]
  IC50: > 100 µM
[13]
  IC50: 56.1 µM

## COc1cc(NC(=O)CSc2nnc(-c3cc(OC)c(OC)c(OC)c3)n2N)cc(OC)c1OC
HepG2
  IC50: > 100 µM
HeLa [6]
  IC50: > 100 µM
[10]
  IC50: > 100 µM
[13]
  IC50: > 100 µM

## COc1cc(-c2nnc(SCC(=O)NCCc3ccc(Cl)cc3)n2N)cc(OC)c1OC
HepG2
  IC50: > 100 µM
HeLa [6]
  IC50: 79.9 µM
[10]
  IC50: 39.6 µM
[13]
  IC50: > 100 µM

## COc1cc(-c2nnc(SCC(=O)Nc3ccc(C)cc3)n2N)cc(OC)c1OC
HepG2
  IC50: > 100 µM
HeLa [6]
  IC50: 4.77 µM
HEK293
  IC50: 79.4 µM
[10]
  IC50: 3.45 µM
[13]
  IC50: 43.1 µM

## COc1cc(-c2nnc(SCC(=O)NCc3ccc(C)cc3)n2N)cc(OC)c1OC
HepG2
  IC50: > 100 µM
HeLa [6]
  IC50: > 100 µM
[10]
  IC50: > 100 µM
[13]
  IC50: 92.8 µM

## COc1ccc(C(=O)CSc2nnc(-c3cc(OC)c(OC)c(OC)c3)n2N)cc1
HepG2
  IC50: > 100 µM
HeLa [6]
  IC50: 17.4 µM
HEK293
  IC50: 100 µM
[10]
  IC50: 1.24 µM
[13]
  IC50: 97.9 µM

## COc1cc(-c2nnc(SCC(=O)Nc3ccccc3C)n2N)cc(OC)c1OC
HepG2
  IC50: > 100 µM
HeLa [6]
  IC50: > 100 µM
[10]
  IC50: > 100 µM
[13]
  IC50: > 100 µM

## COc1cc(-c2nnc(SCC(=O)c3ccc(C(F)(F)F)cc3)n2N)cc(OC)c1OC
HepG2
  IC50: > 100 µM
HeLa [6]
  IC50: 3.38 µM
[10]
  IC50: 16.7 µM
[13]
  IC50: > 100 µM

## COc1cc(-c2nnc(SCC(=O)c3ccc(F)c(F)c3)n2N)cc(OC)c1OC
HepG2
  IC50: > 100 µM
HeLa [6]
  IC50: > 100 µM
[10]
  IC50: 10.4 µM
[13]
  IC50: > 100 µM

## COc1ccc(CCNC(=O)CSc2nnc(-c3cc(OC)c(OC)c(OC)c3)n2N)cc1
HepG2
  IC50: > 100 µM
HeLa [6]
  IC50: > 100 µM
[10]
  IC50: > 100 µM
[13]
  IC50: 73.6 µM

## COc1cc(-c2nnc(SCC(=O)NCc3ccc(Cl)cc3)n2N)cc(OC)c1OC
HepG2
  IC50: > 100 µM
HeLa [6]
  IC50: > 100 µM
[10]
  IC50: > 100 µM
[13]
  IC50: > 100 µM

## COc1cc(-c2nnc(SCC(=O)c3ccccc3F)n2N)cc(OC)c1OC
HepG2
  IC50: 22.6 µM
HeLa [6]
  IC50: 80.1 µM
[10]
  IC50: 10.8 µM
[13]
  IC50: 43.1 µM

## COc1cc(-c2nnc(SCC(=O)c3cccc(Br)c3)n2N)cc(OC)c1OC
HepG2
  IC50: 56 µM
HeLa [6]
  IC50: 77.5 µM
[10]
  IC50: 5.32 µM
[13]
  IC50: > 100 µM
